One assay deals with Her-2 enzyme (Homo sapiens (Human), UniProt P04626). Nature of the assay: HTRF kinEASE TK in vitro kinase assay, Her-2. The assay is classed as biochemical. The settings on record: 30 min enzyme reaction, read-out: IC50 against Her-2.
Assay [1] relates to A431 (human epithelial carcinoma cell lines). Briefly: Growth inhibition test in tumor cells (CCK8), A431. The assay is classed as cell-based. As to conditions: A-431, 72 h.
Description: (§1) i) Logarithmic growth phase cells were collected and counted, the cells were suspended again with complete medium, the cell concentration was adjusted to an appropriate concentration (determined according to the results of cell density optimization test), inoculated to 96 plates, each of which with 100 mL cells suspension.
Assay [2] deals with MDA-MB-453 (human breast cancer cell lines). Nature of the assay: Growth inhibition test in tumor cells (CCK8), MDA-MB-453. The assay is classed as cell-based. As to conditions: MDA-MB-453 cells, 72 h. As to the method: Growth Inhibition Tests of a Series of Compounds in Different Tumor Cells
i. Cell lines: A431 (human epithelial carcinoma cell lines), A549 (human lung cancer cell lines), NCI H1975 (human non-small cell lung cancer cell lines (HCC), HCC 827 (human non-small cell lung cancer cell line), MDA-MB-453 (human breast cancer cell lines)
MDA-MB-453 cell line: 90% L15+10% FBS; trypsin (a 0.25% (W/V) solution was prepared with […], 0.53 mM EDTA was added);
i) Logarithmic growth phase cells were collected and counted, the cells were suspended again with complete medium,
ii) The cell concentration was adjusted to an appropriate concentration, inoculated to 96 holes, each of which with 100 μL cells suspension.
iii) The cells were incubated in a 37° C., 100% relative humidity and 5% CO2 incubator, for 24 h.
i) Logarithmic growth phase cells were collected and counted, the cells were suspended again with complete medium, the cell concentration was adjusted to an appropriate concentration (determined according to the results of cell density optimization test), inoculated to 96 plates, each of which with […] cells suspension. The cells were incubated in a 37° C., 100% relative humidity and 5% CO2 incubator for 24 h.
ii) The test compounds were diluted to the corresponding concentration stated by culture medium, and the cells were inoculated as 25 μL/hole. The final concentration of the compound was from 10 μM to 0 μM, with a gradient of 4 times, and 10 concentration points totally.
iii) The cells were incubated in a 37° C., 100% relative humidity, 5% CO2 incubator for 72 h.
iv) Absorbing the culture medium, the complete medium containing 10% CCK-8 was added and incubated in the incubator of 37° C. for 2-4 h.
v) After a slight shake, the absorbance at 450 nm was measured by SpectraMax M5 Microplate Reader, taking the absorbance at 650 nm as a reference, the inhibition rate was calculated.
The IC50 curve fitting was performed by using the software Graphpad Prism 5 and the calculation formula log (inhibitor) vs. response to calculate the IC50 value.

A further assay addresses EGFR tyrosine kinase (Homo sapiens (Human), UniProt P00533). Briefly: HTRF kinEASE TK in vitro kinase assay, EGFR. The assay is classed as biochemical. The settings on record: 30 min enzyme reaction, read-out: IC50 against EGFR.
For assay [3], the system named is A549 (human lung cancer cell lines). Nature of the assay: Growth inhibition test in tumor cells (CCK8), A549. The settings on record: 72 h. The assay is classed as cell-based.
Description: as §1
For assay [4], the system named is NCI H1975 (human non-small cell lung cancer cell lines). Briefly: Growth inhibition test in tumor cells (CCK8), NCI-H1975. The assay is classed as cell-based. The settings on record: 72 h.
Description: as §1
Assay [5] concerns HCC 827 (human non-small cell lung cancer cell line). Briefly: Growth inhibition test in tumor cells (CCK8), HCC827. The settings on record: HCC 827 cells, 72 h. The assay is classed as cell-based.
Description: as §1
Assay [6] relates to NCI-H1975 nude mice transplanted tumor. Briefly: In vivo pharmacodynamics evaluation, NCI-H1975 nude mice transplanted tumor. On the set-up: species or system BALB/c nude mice. The settings on record: qod, gavage. Here is the method:
BALB/c nude mice, female, 6 to 7 weeks of age, weight 20 g±2 g, purchased from Shanghai silaike experimental animal Co. Ltd., SPF environment.
The logarithmic growth phase NCI-H1975 cells cultured in vitro were digested with trypsin, washed with PBS for three times, the cell survival rate was detected by trypan blue exclusion to be >90%, the cell concentration was adjusted to 1×10^7/mL with PBS, which was implanted subcutaneously in back forelimb of the nude mice with 0.2 mL/pcs under aseptic condition. After tumor formation, the tumor were cultured for two passages in vivo, the tumor were stripped out to sterile culture plate when growing to the volume of 300 to 500 mm^3, a small amount of PBS was added, the tumor tissue with vigorous growth were cut into about 1.5 mm^3 tumor blocks, inoculated in right armpit of the nude mice. The diameter of tumor was measured with vernier caliper, when the tumor grew to 100 to 200 mm^3, then the animal were randomly grouping, […], gavage administration, once a day or every other day, continuously administrated for 14 days (d14) and observed for 7 days (d22), the negative control group was administrated with the same amount of solvent (saline solution of 1% DMSO), during the period of administration and recovery, the body weight and tumor size of the nude mice were measured weekly 2 to 3 times. The tumor volume and relative tumor volume were calculated according to the measured data, and the calculation formula of the tumor volume (TV) was TV=1/2×a×b^2, of which a and b represent the tumor length and diameter respectively. The relative tumor volume (RTV) was calculated according to the measured results, and the calculation formula was: RTV=Vt/V0, wherein V0 represents the tumor volume at the beginning of the experiment, Vt represents the volume of the tumor each measured.

Results on two molecules are retold here after US10196365B2, “Quinazoline derivative, preparation method therefor, and pharmaceutical composition and application thereof” (ARROMAX PHARMATECH CO., LTD., priority 2014, dated 2019).

Marks after values point to notes of the source that are not given here.

Sequence of EGFR tyrosine kinase (P00533 25-1210): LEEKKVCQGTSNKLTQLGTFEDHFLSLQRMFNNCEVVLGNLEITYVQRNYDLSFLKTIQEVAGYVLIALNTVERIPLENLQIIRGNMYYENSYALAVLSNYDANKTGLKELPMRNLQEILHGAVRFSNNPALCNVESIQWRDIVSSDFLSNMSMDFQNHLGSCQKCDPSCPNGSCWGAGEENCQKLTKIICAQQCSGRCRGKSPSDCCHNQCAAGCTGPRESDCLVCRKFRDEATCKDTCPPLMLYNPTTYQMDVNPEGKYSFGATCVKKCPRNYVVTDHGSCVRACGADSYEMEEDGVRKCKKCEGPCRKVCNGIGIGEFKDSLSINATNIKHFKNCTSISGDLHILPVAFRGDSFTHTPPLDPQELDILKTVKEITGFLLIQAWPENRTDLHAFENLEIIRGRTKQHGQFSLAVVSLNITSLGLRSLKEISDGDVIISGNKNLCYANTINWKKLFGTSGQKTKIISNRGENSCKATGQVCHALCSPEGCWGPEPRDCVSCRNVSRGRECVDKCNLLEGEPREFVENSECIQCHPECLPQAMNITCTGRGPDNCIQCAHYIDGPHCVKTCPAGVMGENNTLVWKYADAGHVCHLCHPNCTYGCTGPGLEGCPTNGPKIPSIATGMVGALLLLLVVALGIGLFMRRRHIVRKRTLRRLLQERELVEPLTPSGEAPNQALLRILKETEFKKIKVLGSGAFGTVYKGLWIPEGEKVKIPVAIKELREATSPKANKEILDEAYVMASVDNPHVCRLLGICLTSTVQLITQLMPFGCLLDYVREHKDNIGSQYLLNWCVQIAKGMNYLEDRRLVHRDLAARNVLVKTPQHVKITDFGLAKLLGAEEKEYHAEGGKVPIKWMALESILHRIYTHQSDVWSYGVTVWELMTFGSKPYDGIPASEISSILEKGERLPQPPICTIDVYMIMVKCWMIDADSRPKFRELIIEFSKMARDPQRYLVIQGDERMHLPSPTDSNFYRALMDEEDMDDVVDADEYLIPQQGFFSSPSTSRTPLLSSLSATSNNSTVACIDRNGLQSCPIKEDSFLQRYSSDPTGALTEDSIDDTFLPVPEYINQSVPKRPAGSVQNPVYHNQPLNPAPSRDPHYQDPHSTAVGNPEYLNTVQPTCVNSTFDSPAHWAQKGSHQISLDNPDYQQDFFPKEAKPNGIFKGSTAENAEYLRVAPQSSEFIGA
Sequence of Her-2 enzyme (P04626 23-1255): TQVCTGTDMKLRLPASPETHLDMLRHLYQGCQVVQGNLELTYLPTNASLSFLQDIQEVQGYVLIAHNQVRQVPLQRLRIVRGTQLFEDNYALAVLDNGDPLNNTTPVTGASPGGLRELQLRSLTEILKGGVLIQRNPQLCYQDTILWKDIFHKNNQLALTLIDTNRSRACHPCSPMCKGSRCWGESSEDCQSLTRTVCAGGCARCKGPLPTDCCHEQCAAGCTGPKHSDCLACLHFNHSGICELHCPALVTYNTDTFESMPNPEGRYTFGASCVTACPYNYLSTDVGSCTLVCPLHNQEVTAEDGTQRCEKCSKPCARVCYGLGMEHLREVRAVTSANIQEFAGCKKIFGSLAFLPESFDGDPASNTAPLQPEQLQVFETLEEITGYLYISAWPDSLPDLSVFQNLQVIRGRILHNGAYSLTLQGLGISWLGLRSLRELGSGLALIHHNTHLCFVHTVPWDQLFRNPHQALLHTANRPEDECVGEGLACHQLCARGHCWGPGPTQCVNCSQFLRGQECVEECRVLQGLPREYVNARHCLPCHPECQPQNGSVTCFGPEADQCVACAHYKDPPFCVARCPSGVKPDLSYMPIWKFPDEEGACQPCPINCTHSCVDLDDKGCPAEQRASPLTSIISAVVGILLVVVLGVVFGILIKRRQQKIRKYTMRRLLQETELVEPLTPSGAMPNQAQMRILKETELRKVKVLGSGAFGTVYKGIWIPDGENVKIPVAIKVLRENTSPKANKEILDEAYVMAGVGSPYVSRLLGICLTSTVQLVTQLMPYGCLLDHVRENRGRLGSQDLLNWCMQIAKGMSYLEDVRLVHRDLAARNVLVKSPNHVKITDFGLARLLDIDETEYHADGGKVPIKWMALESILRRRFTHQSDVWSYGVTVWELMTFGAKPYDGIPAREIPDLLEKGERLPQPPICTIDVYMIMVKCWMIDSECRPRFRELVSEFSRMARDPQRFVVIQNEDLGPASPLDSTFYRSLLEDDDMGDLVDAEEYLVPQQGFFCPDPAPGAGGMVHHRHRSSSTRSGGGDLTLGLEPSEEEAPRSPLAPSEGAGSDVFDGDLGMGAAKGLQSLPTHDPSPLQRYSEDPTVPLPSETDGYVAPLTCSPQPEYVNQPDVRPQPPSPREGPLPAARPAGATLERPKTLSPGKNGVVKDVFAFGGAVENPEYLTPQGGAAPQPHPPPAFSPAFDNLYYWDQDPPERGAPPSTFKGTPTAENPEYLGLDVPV
Description for EGFR tyrosine kinase: (§2) The kinase analysis in vitro was performed using the HTRF kinEASE TK kit of Invitrogen Co., the procedure steps were carried out according to instructions of kit, the method then was used to detect the inhibitory effects of test compounds on substrate peptide phosphorylation of the EGFR receptor tyrosine kinase and Her-2 activity enzyme in vitro. Specific steps are as follows:
(§3) b) 2 microliters of the previously prepared TK-biotin substrate solution of EGFR and Her-2 enzyme corresponding to the substrate concentration were added to all the reaction holes.
(§4) The holes were sealed with sealing film for microplate, mixed and incubated at room temperature for 10 min to allow the compounds and enzymes fully combine.
(§5) d) 2 microliters of ATP solutions with concentration corresponding to EGFR and Her-2 enzyme were added to all the reaction holes to start the kinase reaction, the enzyme reaction time of EGFR and HER2 are 30 min.
(§6) e) The EGFR and Her-25 detection solution were prepared 5 min before the end of the kinase reaction. Streptavidin-XL665 and TK europium cryptate (1:100) detection solution corresponding to the two enzymes were prepared respectively by using detection buffer in the kit.
(§7) f) 5 microliters of diluted Streptavidin-XL665 were added to all the reaction holes after the kinase reaction was over, diluted TK antibody europium cryptate detection solutions were then added immediately after fully mixed.
Description for Her-2 enzyme: as §2, §3, §4, §5, §6, §7

Consider `C#Cc1cccc(Nc2ncnc3cc(OCCOCC)c(NC(=O)/C=C/CN(C)C)cc23)c1` [Embodiment 10, (E)-N-(7-(2-ethoxyethoxy)-4-(3-ethynylphenylamino)quinazolin-6-yl)-4-(dimethylamino)but-2-enamide], for which the IC50 on Her-2 enzyme was 3.63 nM; in assay [1], 6.01 nM; in assay [2], 1.43 nM; on EGFR tyrosine kinase, 0.771 nM; in assay [3], 1440 nM; in assay [4] it was 45.5 nM. The molecule further registered an IC50 in assay [5] of 0.587 nM.
Turning to `CCOCCOc1cc2ncnc(Nc3ccc(F)c(Cl)c3)c2cc1NC(=O)/C=C/CN(C)C` [Embodiment 4, (E)-N-(4-(3-chloro-4-fluorophenylamino)-7-(2-ethoxyethoxy)quinazolin-6-yl)-4-(dimethylamino)but-2-enamide], the IC50 on Her-2 enzyme is 42.1 nM; in assay [1] it was 1.53 nM; in assay [2], 0.62 nM; at EGFR tyrosine kinase, 0.699 nM; in assay [3] it was 7520 nM; in assay [5] it was 0.312 nM. Also, the figures for the “Inhibition rate (%) d22” value in assay [6] (5 mg/kg (low dosage)), in assay [6] (20 mg/kg (middle dosage)) and in assay [6] (80 mg/kg (high dosage)) were 73.2** %, 82.0** % and 95.1*** %, respectively. For the same molecule, the “RTV d22” value is 2.00 ± 0.29 in assay [6] (5 mg/kg), 1.39 ± 0.40 in assay [6] (20 mg/kg) and 0.43 ± 0.05 in assay [6] (80 mg/kg). The “T/C (%) d22” value in assay [6] (5 mg/kg) is listed as 26.91%; in assay [6] (20 mg/kg), 18.71%; in assay [6] (80 mg/kg), 5.75%.
